Reference: patent US20160221974A1, “SODIUM CHANNEL MODULATORS FOR THE TREATMENT OF PAIN AND DIABETES” (CHROMOCELL CORPORATION, priority 2013, published 2016)

Molecular target: T1, hNaV1.7 (Homo sapiens, UniProt Q15858)
T1 construct: expressed in transfected cells
Assay: FDSS Membrane Potential In-Vitro Assay
Type: cell-based
Conditions: stimulation with veratridine and scorpion venom, read-out: NaV1.7 IC50

T1 sequence (Q15858 whole entry): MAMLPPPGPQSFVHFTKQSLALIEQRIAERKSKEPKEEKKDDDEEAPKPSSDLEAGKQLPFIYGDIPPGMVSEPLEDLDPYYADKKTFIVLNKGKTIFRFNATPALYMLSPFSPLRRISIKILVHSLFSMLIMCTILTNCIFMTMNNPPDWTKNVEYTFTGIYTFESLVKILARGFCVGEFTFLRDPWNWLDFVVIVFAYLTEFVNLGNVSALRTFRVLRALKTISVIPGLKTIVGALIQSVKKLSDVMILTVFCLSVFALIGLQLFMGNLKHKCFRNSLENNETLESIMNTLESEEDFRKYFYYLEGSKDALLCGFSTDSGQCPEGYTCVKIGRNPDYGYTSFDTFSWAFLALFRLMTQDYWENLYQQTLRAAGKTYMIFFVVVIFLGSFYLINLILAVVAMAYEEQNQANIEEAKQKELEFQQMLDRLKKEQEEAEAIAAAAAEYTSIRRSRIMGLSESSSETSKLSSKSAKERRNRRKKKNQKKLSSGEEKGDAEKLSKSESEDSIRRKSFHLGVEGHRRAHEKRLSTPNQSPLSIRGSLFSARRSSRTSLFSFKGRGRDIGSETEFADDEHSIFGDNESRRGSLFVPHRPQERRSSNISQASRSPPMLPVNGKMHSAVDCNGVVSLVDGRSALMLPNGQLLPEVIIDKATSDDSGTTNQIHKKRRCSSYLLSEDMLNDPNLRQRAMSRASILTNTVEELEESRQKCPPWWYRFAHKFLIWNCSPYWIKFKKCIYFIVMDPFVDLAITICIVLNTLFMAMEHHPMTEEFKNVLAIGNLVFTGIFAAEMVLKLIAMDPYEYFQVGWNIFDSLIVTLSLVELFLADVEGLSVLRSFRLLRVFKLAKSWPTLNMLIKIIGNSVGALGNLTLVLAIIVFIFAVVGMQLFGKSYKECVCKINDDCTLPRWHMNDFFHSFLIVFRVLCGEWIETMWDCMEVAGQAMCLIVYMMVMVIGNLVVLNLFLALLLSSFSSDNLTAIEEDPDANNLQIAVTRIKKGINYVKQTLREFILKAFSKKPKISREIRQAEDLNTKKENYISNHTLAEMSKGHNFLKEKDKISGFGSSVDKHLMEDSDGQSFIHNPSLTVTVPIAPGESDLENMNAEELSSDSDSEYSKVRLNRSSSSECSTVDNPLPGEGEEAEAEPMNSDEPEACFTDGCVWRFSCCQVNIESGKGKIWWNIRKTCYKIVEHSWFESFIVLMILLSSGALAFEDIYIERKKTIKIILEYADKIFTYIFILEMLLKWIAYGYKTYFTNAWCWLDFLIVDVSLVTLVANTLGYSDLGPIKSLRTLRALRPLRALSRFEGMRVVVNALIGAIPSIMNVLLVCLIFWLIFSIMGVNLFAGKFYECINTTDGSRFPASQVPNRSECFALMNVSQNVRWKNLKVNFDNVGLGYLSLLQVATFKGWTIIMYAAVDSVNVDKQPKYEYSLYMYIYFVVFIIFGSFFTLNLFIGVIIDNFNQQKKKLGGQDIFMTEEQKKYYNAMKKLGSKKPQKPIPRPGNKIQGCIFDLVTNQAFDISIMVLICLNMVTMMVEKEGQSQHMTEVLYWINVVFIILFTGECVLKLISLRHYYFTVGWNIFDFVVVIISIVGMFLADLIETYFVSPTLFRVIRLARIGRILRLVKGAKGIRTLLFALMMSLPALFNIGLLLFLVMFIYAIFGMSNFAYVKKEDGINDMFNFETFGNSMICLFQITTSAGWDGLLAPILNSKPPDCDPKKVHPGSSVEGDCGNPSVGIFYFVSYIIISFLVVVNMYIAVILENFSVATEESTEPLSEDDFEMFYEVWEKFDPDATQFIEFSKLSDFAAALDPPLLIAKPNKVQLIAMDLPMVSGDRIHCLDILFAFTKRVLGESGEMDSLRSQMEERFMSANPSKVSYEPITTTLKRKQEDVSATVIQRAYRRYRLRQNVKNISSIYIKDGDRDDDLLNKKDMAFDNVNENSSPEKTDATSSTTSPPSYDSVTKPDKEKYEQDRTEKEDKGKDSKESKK
T1 sequence (Q07699 19-218 partner): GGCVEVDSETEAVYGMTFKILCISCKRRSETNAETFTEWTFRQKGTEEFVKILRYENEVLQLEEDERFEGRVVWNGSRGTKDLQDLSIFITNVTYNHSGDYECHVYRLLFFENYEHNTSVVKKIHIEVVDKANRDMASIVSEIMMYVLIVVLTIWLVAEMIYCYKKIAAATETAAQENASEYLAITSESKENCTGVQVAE
T1 sequence (O60939 30-215 partner): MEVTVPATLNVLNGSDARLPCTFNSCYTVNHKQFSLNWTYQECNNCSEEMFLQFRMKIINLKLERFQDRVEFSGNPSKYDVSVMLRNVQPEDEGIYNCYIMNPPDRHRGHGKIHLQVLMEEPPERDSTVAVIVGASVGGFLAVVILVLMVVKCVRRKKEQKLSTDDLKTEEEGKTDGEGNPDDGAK

First: O=S(=O)(Nc1cscn1)c1cc(Cl)c(Oc2ccc(Cl)cc2CCCN2CCn3ccnc3C2)cc1F [Compound 55, 5-chloro-4-(4-chloro-2-(3-(5,6-dihydroimidazo[1,2-a]pyrazin-7(8H)-yl)propyl)phenoxy)-2-fluoro-N-(thiazol-4-yl)benzenesulfonamide]
Second: O=S(=O)(Nc1cscn1)c1cc(Cl)c(Oc2ccc(Cl)cc2CCCN2CCc3[nH]ncc3C2)cc1F [Compound 48, 5-chloro-4-(4-chloro-2-(3-(6,7-dihydro-1H-pyrazolo[4,3-c]pyridin-5(4H)-yl)propyl)phenoxy)-2-fluoro-N-(thiazol-4-yl)benzenesulfonamide]
The IC50 of the first is lower: 100 to 500 nM for the first, 500 to 1000 nM for the second.

`CC(C)CCOC(=O)CNCCCc1cc(Cl)ccc1Oc1cc(F)c(S(=O)(=O)Nc2nccs2)cc1Cl` [Compound 50, isopentyl 2-((3-(5-chloro-2-(2-chloro-5-fluoro-4-(N-(thiazol-2-yl)sulfamoyl)phenoxy)phenyl)propyl)amino)acetate] and `CC(C)OC(=O)CNCCCc1cc(Cl)ccc1Oc1cc(F)c(S(=O)(=O)Nc2nccs2)cc1Cl` [Compound 51, isopropyl 2-((3-(5-chloro-2-(2-chloro-5-fluoro-4-(N-(thiazol-2-yl)sulfamoyl)phenoxy)phenyl)propyl)amino)acetate] fall in the same range of IC50: 500 to 1000 nM for the first, 500 to 1000 nM for the second.

First: CCOC(=O)CNCCCc1cc(Cl)ccc1Oc1cc(F)c(S(=O)(=O)Nc2nccs2)cc1Cl [Compound 35, ethyl 2-((3-(5-chloro-2-(2-chloro-5-fluoro-4-(N-(thiazol-2-yl)sulfamoyl)phenoxy)phenyl)propyl)amino)acetate]
Second: CCOC(=O)CN(C)CCCc1cc(Cl)ccc1Oc1cc(F)c(S(=O)(=O)Nc2nccs2)cc1Cl [Compound 68, ethyl 2-((3-(5-chloro-2-(2-chloro-5-fluoro-4-(N-(thiazol-2-yl)sulfamoyl)phenoxy)phenyl)propyl)(methyl)amino)acetate]
The IC50 of the first is lower: 100 to 500 nM for the first, 500 to 1000 nM for the second. The first is the more potent here.

Compared with `COC(=O)CN(C)CCCc1cc(Cl)ccc1Oc1cc(F)c(S(=O)(=O)Nc2cscn2)cc1Cl` [Compound 52, methyl 2-((3-(5-chloro-2-(2-chloro-5-fluoro-4-(N-(thiazol-4-yl)sulfamoyl)phenoxy)phenyl)propyl)(methyl)amino)acetate], `CNC(=O)CNCCCc1cc(Cl)ccc1Oc1cc(F)c(S(=O)(=O)Nc2cscn2)cc1Cl` [Compound 46, 2-((3-(5-chloro-2-(2-chloro-5-fluoro-4-(N-(thiazol-4-yl)sulfamoyl)phenoxy)phenyl)propyl)amino)-N-methylacetamide] is lower in IC50: 1000 to 20000 nM for the first, 100 to 500 nM for the second. The second is the more potent here.

`CS(=O)(=O)CCNCCCc1cc(Cl)ccc1Oc1cc(F)c(S(=O)(=O)Nc2nccs2)cc1Cl` [Compound 59, 5-chloro-4-(4-chloro-2-(3-((2-(methylsulfonyl)ethyl)amino)propyl)phenoxy)-2-fluoro-N-(thiazol-2-yl)benzenesulfonamide] and `O=C(O)CCNCCCc1cc(Cl)ccc1Oc1cc(F)c(S(=O)(=O)Nc2nccs2)cc1F` [Compound 43, 3-((3-(5-chloro-2-(2,5-difluoro-4-(N-(thiazol-2-yl)sulfamoyl)phenoxy)phenyl)propyl)amino)propanoic acid] fall in the same range of IC50: 100 to 500 nM for the first, 100 to 500 nM for the second.

First: O=C(O)CNC(=O)c1cccc(-c2cc(Cl)ccc2Oc2cc(F)c(S(=O)(=O)Nc3ncns3)cc2Cl)n1 [Compound 7, 2-(6-(2-(4-(N-(1,2,4-thiadiazol-5-yl)sulfamoyl)-2-chloro-5-fluorophenoxy)-5-chlorophenyl)picolinamido)acetic acid]
Second: O=S(=O)(Nc1nccs1)c1cc(Cl)c(Oc2ccc(Cl)cc2CCCNc2cn[nH]c2)cc1F [Compound 42, 4-(2-(3-((1H-pyrazol-4-yl)amino)propyl)-4-chlorophenoxy)-5-chloro-2-fluoro-N-(thiazol-2-yl)benzenesulfonamide]
The IC50 of the first is lower: 130 to 1000 nM for the first, 1000 to 20000 nM for the second. The first is the more potent here.

Compared with `O=S(=O)(Nc1nccs1)c1cc(Cl)c(Oc2ccc(Cl)cc2-c2cnn3c2NCCC3)cc1F` [Compound 57, 5-chloro-4-(4-chloro-2-(4,5,6,7-tetrahydropyrazolo[1,5-a]pyrimidin-3-yl)phenoxy)-2-fluoro-N-(thiazol-2-yl)benzenesulfonamide], `O=S(=O)(Nc1cscn1)c1cc(Cl)c(Oc2ccc(Cl)cc2CCCNc2cc[nH]n2)cc1F` [Compound 45, 4-(2-(3-((1H-pyrazol-3-yl)amino)propyl)-4-chlorophenoxy)-5-chloro-2-fluoro-N-(thiazol-4-yl)benzenesulfonamide] is higher in IC50: 100 to 500 nM for the first, 1000 to 20000 nM for the second. The first is the more potent here.

Molecular target: T2, NaV1.7 (Homo sapiens, UniProt Q15858)
T2 construct: expressed in transfected cells
Assay: Patchliner Electrophysiological In-Vitro Assay (NaV1.7)
Type: cell-based
Conditions: Patchliner patch clamp, HEK293, holding at V1/2
Method: In vitro assays were performed in recombinant cell line that stably express a heterotrimeric protein of interest from an introduced nucleic acid encoding the alpha subunit (hNav1.7, SCN9A), the beta subunit (SCNB1) and the beta subunit (SCNB2). The cell line was engineered using Human Embryonic Kidney 293 cells as host background. Additional cell lines stably expressing recombinant Nav1.7 or Nav1.5 alpha subunit alone or in combination with various beta subunits can also be used in in-vitro assays.
The recording of sodium current from stable HEK293 cell lines expressing NaV1.7 or NaV1.5 was done on a Patchliner® instrument, Nanion Technologies. The Patchliner® is a fully automated bench-top patch clamp platform and can record simultaneously from up to eight single cells with GΩ seals.
For patch-clamp experiments, cells were grown under standard culturing conditions in Dulbecco's Modified Eagles medium supplemented with 10% fetal bovine serum, glutamine and HEPES. Cells were harvested and kept in suspension for up to 4 hours with no significant change in quality or ability to patch. Whole cell patch clamp recordings were conducted according to Nanion's standard procedure for the Patchliner®. Experiments were conducted at room temperature.
Voltage protocols were designed to establish: 1) peak current amplitude (Imax), 2) test potential (Vmax) and 3) half-inactivation potential (V1/2) for each of the eight individual cells. To determine V1/2, a standard steady-state inactivation protocol was executed using a series of fifteen 500 ms depolarizing pre-pulses in 10 mV increments (starting at −130 mV) and immediately followed by a 10 ms test pulse to Vmax. To estimate test compound affinity to the inactivated state of sodium channel (Ki), the holding potential for each cell was set automatically to the V1/2 calculated from a steady-state inactivation data. The current was activated with the following voltage protocol: holding at V1/2 for 2-5 seconds, return to the −120 mV for 5-10 ms to relieve fast inactivation, stepping to test potential (Vmax) for 10-20 ms. This voltage protocol was repeated every 10 seconds to establish the baseline with 2-3 buffer additions followed by the test compound addition. The dose-dependent inhibition was analyzed using Nanion's Data Analysis Package.

T2 sequence (Q15858 whole entry): as the sequence (Q15858 whole entry) above
T2 sequence (Q07699 19-218 partner): as the sequence (Q07699 19-218 partner) above
T2 sequence (O60939 30-215 partner): as the sequence (O60939 30-215 partner) above

`O=C(O)CCNCCCc1cc(Cl)ccc1Oc1cc(F)c(S(=O)(=O)Nc2nccs2)cc1Cl` [Compound 29, 3-((3-(5-chloro-2-(2-chloro-5-fluoro-4-(N-(thiazol-2-yl)sulfamoyl)phenoxy)phenyl)propyl)amino)propanoic acid] and `NC(=O)CNCCCc1cc(Cl)ccc1Oc1cc(F)c(S(=O)(=O)Nc2nccs2)cc1Cl` [Compound 63, 2-((3-(5-chloro-2-(2-chloro-5-fluoro-4-(N-(thiazol-2-yl)sulfamoyl)phenoxy)phenyl)propyl)amino)acetamide] cannot be ordered by IC50: less than 100 nM for the first, less than 100 nM for the second.

Compared with `COC(=O)CNCCCc1cc(Cl)ccc1Oc1cc(F)c(S(=O)(=O)Nc2cscn2)cc1Cl` [Compound 24, methyl 2-((3-(5-chloro-2-(2-chloro-5-fluoro-4-(N-(thiazol-4-yl)sulfamoyl)phenoxy)phenyl)propyl)amino)acetate], `COC(=O)CN(C)CCCc1cc(Cl)ccc1Oc1cc(F)c(S(=O)(=O)Nc2cscn2)cc1Cl` [Compound 52, methyl 2-((3-(5-chloro-2-(2-chloro-5-fluoro-4-(N-(thiazol-4-yl)sulfamoyl)phenoxy)phenyl)propyl)(methyl)amino)acetate] is higher in IC50: less than 100 nM for the first, 100 to 500 nM for the second.

`CCCCCOC(=O)N(CCCc1cc(Cl)ccc1Oc1cc(F)c(S(=O)(=O)Nc2nccs2)cc1Cl)CC(=O)O` [Compound 53, 2-((3-(5-chloro-2-(2-chloro-5-fluoro-4-(N-(thiazol-2-yl)sulfamoyl)phenoxy)phenyl)propyl)((pentyloxy)carbonyl)amino)acetic acid] and `CCCN(CCCc1cc(Cl)ccc1Oc1cc(F)c(S(=O)(=O)Nc2nccs2)cc1Cl)CC(=O)O` [Compound 65, 2-((3-(5-chloro-2-(2-chloro-5-fluoro-4-(N-(thiazol-2-yl)sulfamoyl)phenoxy)phenyl)propyl)(propyl)amino)acetic acid] cannot be ordered by IC50: less than 100 nM for the first, less than 100 nM for the second.

First: O=C(O)CCNCCCc1cc(F)ccc1Oc1cc(F)c(S(=O)(=O)Nc2cscn2)cc1Cl [Compound 25, 3-((3-(2-(2-chloro-5-fluoro-4-(N-(thiazol-4-yl)sulfamoyl)phenoxy)-5-fluorophenyl)propyl)amino)propanoic acid]
Second: NC(=O)CNCCCc1cc(Cl)ccc1Oc1cc(F)c(S(=O)(=O)Nc2cscn2)cc1F [Compound 69, 2-((3-(5-chloro-2-(2,5-difluoro-4-(N-(thiazol-4-yl)sulfamoyl)phenoxy)phenyl)propyl)amino)acetamide]
The IC50 of the first is higher: 100 to 1000 nM for the first, less than 100 nM for the second.

`C#CCN(CCCc1cc(Cl)ccc1Oc1cc(F)c(S(=O)(=O)Nc2nccs2)cc1F)CC(=O)O` [Compound 67, 2-((3-(5-chloro-2-(2,5-difluoro-4-(N-(thiazol-2-yl)sulfamoyl)phenoxy)phenyl)propyl)(prop-2-yn-1-yl)amino)acetic acid] and `C#CCN(CCCc1cc(Cl)ccc1Oc1cc(F)c(S(=O)(=O)Nc2nccs2)cc1Cl)CCC(=O)O` [Compound 66, 3-((3-(5-chloro-2-(2-chloro-5-fluoro-4-(N-(thiazol-2-yl)sulfamoyl)phenoxy)phenyl)propyl)(prop-2-yn-1-yl)amino)propanoic acid] cannot be ordered by IC50: less than 100 nM for the first, less than 100 nM for the second.

`CC#CCN(CCCc1cc(Cl)ccc1Oc1cc(F)c(S(=O)(=O)Nc2nccs2)cc1Cl)CC(=O)O` [Compound 64, 2-(but-2-yn-1-yl(3-(5-chloro-2-(2-chloro-5-fluoro-4-(N-(thiazol-2-yl)sulfamoyl)phenoxy)phenyl)propyl)amino)acetic acid] and `C=CCN(CCCc1cc(Cl)ccc1Oc1cc(F)c(S(=O)(=O)Nc2nccs2)cc1Cl)CC(=O)O` [Compound 62, 2-(allyl(3-(5-chloro-2-(2-chloro-5-fluoro-4-(N-(thiazol-2-yl)sulfamoyl)phenoxy)phenyl)propyl)amino)acetic acid] cannot be ordered by IC50: less than 100 nM for the first, less than 100 nM for the second.

First: O=S(=O)(Nc1cscn1)c1cc(Cl)c(Oc2ccc(Cl)cc2-c2cnn3c2NCCC3)cc1F [Compound 33, 5-chloro-4-(4-chloro-2-(4,5,6,7-tetrahydropyrazolo[1,5-a]pyrimidin-3-yl)phenoxy)-2-fluoro-N-(thiazol-4-yl)benzenesulfonamide]
Second: C#CCN(CCCc1cc(Cl)ccc1Oc1cc(F)c(S(=O)(=O)Nc2cscn2)cc1Cl)CC(=O)O [Compound 61, 2-((3-(5-chloro-2-(2-chloro-5-fluoro-4-(N-(thiazol-4-yl)sulfamoyl)phenoxy)phenyl)propyl)(prop-2-yn-1-yl)amino)acetic acid]
The IC50 of the first is higher: 100 to 1000 nM for the first, less than 100 nM for the second.

`NC(=O)CNCCCc1ccccc1Oc1cc(F)c(S(=O)(=O)Nc2cscn2)cc1Cl` [Compound 60, 2-((3-(2-(2-chloro-5-fluoro-4-(N-(thiazol-4-yl)sulfamoyl)phenoxy)phenyl)propyl)amino)acetamide] gave an IC50 of less than 100 nM.
